This passage reports melting point results from patent publication US8399493B2, “Pyridinone derivatives and their use as positive allosteric modulators of mGluR2-receptors” (Janssen Pharmaceuticals, Inc., priority 2004, dated 2013).

What is called melting point is the temperature, or range, at which the solid turns liquid.

Turning to `COc1ccc(-c2ccc(=O)n(Cc3ccccc3C)c2)cc1` [4-05], the melting point was 122 °C.
The value for `COc1ccc(-c2ccc(=O)n(Cc3ccc(C)cc3)c2)cc1` [4-06] was 123 to 124 °C; that for `COc1ccc(-c2ccc(=O)n(Cc3ccc(C(F)(F)F)cc3)c2)cc1` [4-07] was 131 to 132 °C; that for `COc1ccc(-c2ccc(=O)n(Cc3cccc(F)c3)c2)cc1` [4-09] was 89 °C.
Under `COc1ccc(-c2ccc(=O)n(Cc3ccc(F)cc3)c2)cc1` [4-10] stands 103 °C; under `COc1ccc(-c2ccc(=O)n(Cc3ccc(F)cc3F)c2)cc1` [4-12], 109 °C.
The value for `COc1ccc(-c2ccc(=O)n(Cc3cccc(F)c3F)c2)cc1` [4-13] was 71 °C.
`COc1ccc(-c2ccc(=O)n(Cc3c(F)cc(F)cc3F)c2)cc1` [4-17] yielded a melting point of 112 °C.
Take `COc1ccc(-c2ccc(=O)n(Cc3ccccc3Cl)c2)cc1` [4-18]: the melting point stood at 125 °C.
The value for `COc1ccc(Cn2cc(-c3ccc(OC)cc3)ccc2=O)cc1` [4-23] was 103 °C; that for `COCc1ccc(Cn2cc(-c3ccc(OC)cc3)ccc2=O)cc1` [4-25, 1-(4-(Methoxymethyl)benzyl)-5-(4-methoxyphenyl)pyridin-2(1H)-one] was 72 °C.
The compound `COC(=O)c1ccc(Cn2cc(-c3ccc(OC)cc3)ccc2=O)cc1` [4-27] registered a melting point of 147 to 150 °C.
Under `COc1ccc(-c2ccc(=O)n(Cc3cccc(C#N)c3)c2)cc1` [4-29] stands 165 °C; under `COc1ccc(-c2ccc(=O)n(Cc3ccc(C#N)cc3)c2)cc1` [4-30], 119 to 120 °C.
The value for `COc1ccc(-c2ccc(=O)n(Cc3ccc(OC(F)(F)F)cc3)c2)cc1` [4-31] was 130 °C; that for `COc1ccc(-c2ccc(=O)n(Cc3ccc([N+](=O)[O-])cc3)c2)cc1` [4-33] was 95 °C.
The value for `COc1ccc(-c2ccc(=O)n(Cc3ccc(C(F)(F)F)cc3F)c2)cc1` [4-34] was 131 to 134 °C; that for `COc1ccc(-c2ccc(=O)n(Cc3ccc(C(F)(F)F)c(F)c3)c2)cc1` [4-35] was 82 to 84 °C.
Consider `COc1ccc(-c2ccc(=O)n(Cc3ccc(C)c(F)c3)c2)cc1` [4-36], for which the melting point lay within 98 to 100 °C.
Compound `COc1ccc(-c2ccc(=O)n(Cc3ccc4ccccc4c3)c2)cc1` [4-38] returned a melting point of 145 to 148 °C.
Regarding `COc1ccc(-c2ccc(=O)n(Cc3ccc(C(F)(F)F)o3)c2)cc1` [4-39], the melting point came to 120 °C.
Under `COc1ccc(-c2ccc(=O)n(Cc3cc(C)on3)c2)cc1` [4-40] stands 100 to 102 °C; under `COc1ccc(-c2ccc(=O)n(Cc3noc(-c4ccccc4)n3)c2)cc1` [4-41], 104 °C; under `COc1ccc(-c2ccc(=O)n(Cc3nc(-c4ccc(F)cc4)no3)c2)cc1` [4-42, 1-((3-(4-Fluorophenyl)-1,2,4-oxadiazol-5-yl)methyl)-5-(4-methoxyphenyl)pyridin-2(1H)-one], 123 °C.
Under `COc1ccc(-c2ccc(=O)n(Cc3ccc(Cl)nc3)c2)cc1` [4-44] stands 135 °C; under `CCc1ccc(Cn2cc(-c3ccc(OC)cc3)ccc2=O)cn1` [4-45, 1-((6-Ethylpyridin-3-yl)methyl)-5-(4-methoxyphenyl)pyridin-2(1H)-one], 130 °C; under `COc1ccc(-c2ccc(=O)n(Cc3nc4cc(F)ccc4o3)c2)cc1` [4-51, 1-((5-Fluorobenzo[d]oxazol-2-yl)methyl)-5-(4-methoxyphenyl)-pyridin-2(1H)-one], 115 °C.
`COc1ccc(-c2ccc(=O)n(Cc3cnc(C)s3)c2)cc1` [4-52] came in with a melting point of 127 to 130 °C.
The value for `COc1ccc(-c2ccc(=O)n(Cc3nc4ccccc4s3)c2)cc1` [4-53] was 121 °C.
The value for `COc1ccc(-c2ccc(=O)n(Cc3nc4c(F)cccc4s3)c2)cc1` [4-54] was 126 °C; that for `Cc1ccc(-c2ccc(=O)n(Cc3cccc(F)c3)c2)cc1` [6-04] was 112 to 113 °C.
For the compound `COCc1ccc(-c2ccc(=O)n(Cc3ccc(F)c(F)c3)c2)cc1` [6-11], the melting point is 85 °C.
`CC(=O)c1ccc(-c2ccc(=O)n(Cc3ccc(F)c(F)c3)c2)cc1` [6-12] came in with a melting point of 142 °C.
The value for `N#Cc1ccc(-c2ccc(=O)n(Cc3ccc(F)c(F)c3)c2)cc1` [6-13] was 139 °C; that for `O=c1ccc(-c2cccs2)cn1Cc1ccc(F)c(F)c1` [6-15] was 96 °C.
Take `O=c1ccc(-c2ccc3c(c2)CCO3)cn1Cc1ccc(F)c(F)c1` [6-17]: the melting point amounted to 99 °C.
Under `O=c1ccc(-c2ccc3c(c2)OCO3)cn1Cc1ccc(F)c(F)c1` [6-18] stands 181 °C; under `O=c1ccc(-c2nc3ccccc3s2)cn1Cc1ccc(Cl)c(F)c1` [6-19, 1-(4-Chloro-3-fluorobenzyl)-5-(benzo[d]thiazol-2-yl)pyridin-2(1H)-one], 164 °C.
The value for `O=c1ccc(Br)cn1Cc1ccc(Cl)cc1F` [6-20] was 102 °C; that for `O=c1ccc(-c2ccc(O)cc2)cn1Cc1ccc(Cl)cc1F` [6-21] was 224 °C.
The value for `Nc1cccc(-c2ccc(=O)n(Cc3ccc(Cl)cc3F)c2)c1` [6-22] was 70 °C; that for `NCc1ccc(-c2ccc(=O)n(Cc3ccc(Cl)cc3F)c2)cc1` [6-24] was 139 °C; that for `N#Cc1cccc(-c2ccc(=O)n(Cc3ccc(Cl)cc3F)c2)c1` [6-25] was 140 °C.
`O=c1ccc(-c2ccc(CO)cc2)cn1Cc1ccc(Cl)cc1F` [6-26] gave a melting point of 176 °C.
On to `O=c1ccc(-c2ccc(C(F)(F)F)cc2)cn1Cc1ccc(Cl)cc1F` [6-27], for which the melting point amounted to 127 °C.
Under `COc1ccc(-c2ccc(=O)n(Cc3ccc(Cl)cc3F)c2)cc1C` [6-28] stands 104 °C.
The value for `COc1ccc(-c2ccc(=O)n(Cc3ccc(Cl)cc3F)c2)cc1OC` [6-31] was 141 °C; that for `CCCOc1ccc(-c2ccc(=O)n(Cc3ccc(Cl)cc3F)c2)cc1` [6-32] was 107 °C; that for `CC(C)COc1ccc(-c2ccc(=O)n(Cc3ccc(Cl)cc3F)c2)cc1` [6-33] was 88 °C.
Under `COCCOc1ccc(-c2ccc(=O)n(Cc3ccc(Cl)cc3F)c2)cc1` [6-36] stands 90 °C; under `O=c1ccc(-c2ccc(OCc3ccco3)cc2)cn1Cc1ccc(Cl)cc1F` [6-37], 114 °C.
`COC(=O)Oc1ccc(-c2ccc(=O)n(Cc3ccc(Cl)cc3F)c2)cc1` [6-39, 4-(1-(4-Chloro-2-fluorobenzyl)-6-oxo-1,6-dihydropyridin-3-yl)phenyl methyl carbonate]: the melting point worked out at 124 °C.
The value for `CC(=O)COc1ccc(-c2ccc(=O)n(Cc3ccc(Cl)cc3F)c2)cc1` [6-40, 1-(4-Chloro-2-fluorobenzyl)-5-(4-(2-oxopropoxy)phenyl)pyridin-2(1H)-one] was 127 °C.
The value for `COC(=O)COc1ccc(-c2ccc(=O)n(Cc3ccc(Cl)cc3F)c2)cc1` [6-41] was 119 °C; that for `NCCOc1ccc(-c2ccc(=O)n(Cc3ccc(Cl)cc3F)c2)cc1` [6-42] was 226 °C.
Under `NCCCOc1ccc(-c2ccc(=O)n(Cc3ccc(Cl)cc3F)c2)cc1` [6-43] stands 253 °C; under `CN(C)CCOc1ccc(-c2ccc(=O)n(Cc3ccc(Cl)cc3F)c2)cc1` [6-44], 85 °C; under `CN(C)CCCOc1ccc(-c2ccc(=O)n(Cc3ccc(Cl)cc3F)c2)cc1` [6-45], 104 °C.
Regarding `N#CCOc1ccc(-c2ccc(=O)n(Cc3ccc(Cl)cc3F)c2)cc1` [6-46, 2-(4-(1-(4-Chloro-2-fluorobenzyl)-6-oxo-1,6-dihydropyridin-3-yl)-phenoxy)acetonitrile], the melting point was 160 °C.
The value for `O=c1ccc(-c2ccc(OCCCN3CCOCC3)cc2)cn1Cc1ccc(Cl)cc1F` [6-48] was 153 °C.
For `COc1ccc(-c2ccc(=O)n(Cc3ccc(Cl)cc3F)c2)cn1` [6-51, 1-(4-Chloro-2-fluorobenzyl)-5-(6-methoxypyridin-3-yl)pyridin-2(1H)-one], the melting point stood at 136 °C.
`CNC(=O)COc1ccc(-c2ccc(=O)n(Cc3ccc(Cl)cc3F)c2)cc1` [6-52] displayed a melting point of 162 °C.
The value for `CC(=O)NCCOc1ccc(-c2ccc(=O)n(Cc3ccc(Cl)cc3F)c2)cc1` [6-53, N-(2-(4-(1-(4-Chloro-2-fluorobenzyl)-6-oxo-1,6-dihydropyridin-3-yl)phenoxy)ethyl)acetamide] was 153 °C.
On to `CC(=O)N(CCOc1ccc(-c2ccc(=O)n(Cc3ccc(Cl)cc3F)c2)cc1)C(C)=O` [6-55], for which the melting point was 121 °C.
In turn, `CC(=O)N(CCCOc1ccc(-c2ccc(=O)n(Cc3ccc(Cl)cc3F)c2)cc1)C(C)=O` [6-56] registered a melting point of 131 °C.
Under `CC(=O)Nc1cccc(-c2ccc(=O)n(Cc3ccc(Cl)cc3F)c2)c1` [6-57] stands 194 °C.
The value for `CC(=O)Nc1ccc(-c2ccc(=O)n(Cc3ccc(Cl)cc3F)c2)cc1` [6-58] was 230 °C.
`CC(=O)NCc1cccc(-c2ccc(=O)n(Cc3ccc(Cl)cc3F)c2)c1` [6-60] showed a melting point of 143 °C.
Under `CC(=O)NCc1ccc(-c2ccc(=O)n(Cc3ccc(Cl)cc3F)c2)cc1` [6-61] stands 150 °C; under `O=C1CCCN1CCOc1ccc(-c2ccc(=O)n(Cc3ccc(Cl)cc3F)c2)cc1` [6-62], 180 °C.
Under `Cc1cc(COc2ccc(-c3ccc(=O)n(Cc4ccc(Cl)cc4F)c3)cc2)no1` [6-63] stands 135 °C; under `Cc1nc(COc2ccc(-c3ccc(=O)n(Cc4ccc(Cl)cc4F)c3)cc2)cs1` [6-66], 90 °C; under `O=c1ccc(-c2cccc(-c3nn[nH]n3)c2)cn1Cc1ccc(Cl)cc1F` [6-67], 240 °C.
In turn, `O=c1ccc(-c2ccc(-c3nnn[nH]3)cc2)cn1Cc1ccc(Cl)cc1F` [6-68] returned a melting point of 241 °C.
